From patent publication US20230074545A1, “TREATMENT OF CANCER WITH CDK12/13 INHIBITORS” (Kinnate Biopharma Inc., priority 2019, published 2023)

Tests used:
Experiment in all cases: Radiometric kinase panel
Type in all cases: biochemical
[1] = target: T1, TBK1 (Homo sapiens, UniProt Q9UHD2)
T1 construct: either as full-length or enzymatically active fragments; purchased ProQinase GmbH (Reaction Biology)
In short: (§1)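 Activity was measured radiometrically from [gamma-33P]-ATP incorporation into substrate. The kinases were recombinant human GST- or His-tagged proteins, full-length or active fragments, expressed in Sf9 or E. coli. Compound in 10% DMSO was added before the enzyme/substrate mix, which started the reaction.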

[2] = target: T2, WEE1 (Homo sapiens, UniProt P30291)
T2 construct: either as full-length or enzymatically active fragments; purchased ProQinase GmbH (Reaction Biology)
In short: as §1

[3] = target: T3, AXL (Homo sapiens, UniProt P30530)
T3 construct: either as full-length or enzymatically active fragments; purchased ProQinase GmbH (Reaction Biology)
In short: as §1

[4] = target: T4, PKN3 (Homo sapiens, UniProt Q6P5Z2)
T4 construct: purchased ProQinase GmbH (Reaction Biology)
In short: as §1

[5] = target: T5, JNK1 (Homo sapiens, UniProt P45983)
T5 construct: either as full-length or enzymatically active fragments; purchased ProQinase GmbH (Reaction Biology)
In short: as §1

[6] = target: T6, AKT3 (Homo sapiens, UniProt Q9Y243)
T6 construct: purchased ProQinase GmbH (Reaction Biology)
In short: as §1

[7] = target: T7, CDK6/CycD3 (Homo sapiens, UniProt Q00534)
T7 construct: either as full-length or enzymatically active fragments; purchased ProQinase GmbH (Reaction Biology); host or cells: Sf9 insect cells or E. coli
In short: as §1

[8] = target: T8, CK1alpha1 (Homo sapiens, UniProt P48729)
T8 construct: either as full-length or enzymatically active fragments; purchased ProQinase GmbH (Reaction Biology); host or cells: Sf9 insect cells or E. coli
In short: as §1

[9] = target: T9, MELK (Homo sapiens, UniProt Q14680)
T9 construct: purchased ProQinase GmbH (Reaction Biology); host or cells: Sf9 insect cells or E. coli (not specified per kinase)
In short: as §1

[10] = target: T10, DYRK1A (Homo sapiens, UniProt Q13627)
T10 construct: either as full-length or enzymatically active fragments; purchased ProQinase GmbH (Reaction Biology)
In short: as §1

[11] = target: T11, PRKD2 (Homo sapiens, UniProt Q9BZL6)
T11 construct: either as full-length or enzymatically active fragments; purchased ProQinase GmbH (Reaction Biology); host or cells: Sf9 insect cells or E. coli
T11 sequence (Q9BZL6 whole entry, the tested form may be a part): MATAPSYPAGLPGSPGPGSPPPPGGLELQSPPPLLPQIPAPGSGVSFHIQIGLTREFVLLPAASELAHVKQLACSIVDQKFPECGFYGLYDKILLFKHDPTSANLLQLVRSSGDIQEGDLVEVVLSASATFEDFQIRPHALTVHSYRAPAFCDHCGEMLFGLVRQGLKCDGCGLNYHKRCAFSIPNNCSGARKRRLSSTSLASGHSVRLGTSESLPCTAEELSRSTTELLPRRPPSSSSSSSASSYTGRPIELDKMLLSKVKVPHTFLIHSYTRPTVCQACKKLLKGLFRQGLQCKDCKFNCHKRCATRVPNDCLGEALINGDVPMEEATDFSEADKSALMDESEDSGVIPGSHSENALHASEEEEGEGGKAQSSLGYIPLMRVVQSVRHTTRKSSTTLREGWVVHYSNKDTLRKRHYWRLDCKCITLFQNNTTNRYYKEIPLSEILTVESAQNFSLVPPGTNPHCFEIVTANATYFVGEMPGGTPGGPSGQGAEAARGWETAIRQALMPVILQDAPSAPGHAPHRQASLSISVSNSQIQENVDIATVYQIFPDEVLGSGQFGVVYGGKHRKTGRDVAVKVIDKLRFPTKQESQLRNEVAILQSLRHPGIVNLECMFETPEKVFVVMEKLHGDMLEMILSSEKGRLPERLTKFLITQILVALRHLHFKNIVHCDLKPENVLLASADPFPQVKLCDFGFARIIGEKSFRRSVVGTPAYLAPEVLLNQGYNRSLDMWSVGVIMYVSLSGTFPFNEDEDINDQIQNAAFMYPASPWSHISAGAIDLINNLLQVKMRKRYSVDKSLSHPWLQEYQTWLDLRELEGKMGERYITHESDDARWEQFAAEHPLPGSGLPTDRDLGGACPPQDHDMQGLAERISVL
In short: as §1

[12] = target: T12, CDK9/CycT1 (Homo sapiens, UniProt P50750)
T12 construct: either as full-length or enzymatically active fragments; purchased ProQinase GmbH (Reaction Biology)
T12 sequence (P50750 whole entry, the tested form may be a part): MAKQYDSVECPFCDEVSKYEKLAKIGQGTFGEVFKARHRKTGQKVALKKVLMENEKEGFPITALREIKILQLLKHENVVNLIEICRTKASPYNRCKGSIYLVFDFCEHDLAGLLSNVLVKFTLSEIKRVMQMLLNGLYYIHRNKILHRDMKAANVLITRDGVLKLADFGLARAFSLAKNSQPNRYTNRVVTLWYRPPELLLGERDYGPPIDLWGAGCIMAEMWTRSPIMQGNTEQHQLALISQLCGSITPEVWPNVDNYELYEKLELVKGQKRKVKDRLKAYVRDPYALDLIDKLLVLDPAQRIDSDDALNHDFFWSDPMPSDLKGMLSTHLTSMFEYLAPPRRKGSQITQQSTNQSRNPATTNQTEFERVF
T12 sequence (O60563 whole entry partner, the tested form may be a part): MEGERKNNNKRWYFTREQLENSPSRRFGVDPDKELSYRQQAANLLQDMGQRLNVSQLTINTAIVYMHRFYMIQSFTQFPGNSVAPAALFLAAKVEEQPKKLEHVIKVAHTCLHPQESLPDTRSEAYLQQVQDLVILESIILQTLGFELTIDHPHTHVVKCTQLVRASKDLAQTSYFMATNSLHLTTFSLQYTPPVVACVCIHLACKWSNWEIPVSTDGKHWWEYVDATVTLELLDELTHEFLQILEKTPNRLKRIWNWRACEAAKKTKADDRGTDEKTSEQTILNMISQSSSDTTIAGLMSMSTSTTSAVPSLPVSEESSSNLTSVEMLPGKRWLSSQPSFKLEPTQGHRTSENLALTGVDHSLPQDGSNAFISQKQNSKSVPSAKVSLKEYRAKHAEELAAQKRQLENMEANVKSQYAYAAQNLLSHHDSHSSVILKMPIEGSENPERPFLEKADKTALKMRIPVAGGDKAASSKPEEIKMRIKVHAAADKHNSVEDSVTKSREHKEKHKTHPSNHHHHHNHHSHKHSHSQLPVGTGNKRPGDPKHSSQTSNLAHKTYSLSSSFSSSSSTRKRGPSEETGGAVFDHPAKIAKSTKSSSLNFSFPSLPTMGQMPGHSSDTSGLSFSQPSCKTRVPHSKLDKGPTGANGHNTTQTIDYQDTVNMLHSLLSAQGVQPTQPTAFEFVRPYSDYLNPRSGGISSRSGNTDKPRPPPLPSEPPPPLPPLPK
In short: as §1

[13] = target: T13, MLK4 (Homo sapiens, UniProt Q5TCX8)
T13 construct: either as full-length or enzymatically active fragments; purchased ProQinase GmbH (Reaction Biology); host or cells: Sf9 insect cells or E. coli (not specified per kinase)
In short: as §1

[14] = target: T14, AuroraA (Homo sapiens, UniProt O14965)
T14 construct: either as full-length or enzymatically active fragments; purchased ProQinase GmbH (Reaction Biology)
In short: as §1

[15] = target: T15, TSSK1 (Homo sapiens, UniProt Q9BXA7)
T15 construct: either as full-length or enzymatically active fragments; purchased ProQinase GmbH (Reaction Biology)
In short: as §1

[16] = target: T16, CDK6/CycD1 (Homo sapiens, UniProt Q00534)
T16 construct: purchased ProQinase GmbH (Reaction Biology); host or cells: Sf9 insect cells or E. coli (not specified per kinase)
In short: as §1

[17] = target: T17, EPHB2 (Homo sapiens, UniProt P29323)
T17 construct: purchased ProQinase GmbH (Reaction Biology); host or cells: Sf9 insect cells or E. coli (not specified per kinase)
T17 sequence (P29323 19-1055): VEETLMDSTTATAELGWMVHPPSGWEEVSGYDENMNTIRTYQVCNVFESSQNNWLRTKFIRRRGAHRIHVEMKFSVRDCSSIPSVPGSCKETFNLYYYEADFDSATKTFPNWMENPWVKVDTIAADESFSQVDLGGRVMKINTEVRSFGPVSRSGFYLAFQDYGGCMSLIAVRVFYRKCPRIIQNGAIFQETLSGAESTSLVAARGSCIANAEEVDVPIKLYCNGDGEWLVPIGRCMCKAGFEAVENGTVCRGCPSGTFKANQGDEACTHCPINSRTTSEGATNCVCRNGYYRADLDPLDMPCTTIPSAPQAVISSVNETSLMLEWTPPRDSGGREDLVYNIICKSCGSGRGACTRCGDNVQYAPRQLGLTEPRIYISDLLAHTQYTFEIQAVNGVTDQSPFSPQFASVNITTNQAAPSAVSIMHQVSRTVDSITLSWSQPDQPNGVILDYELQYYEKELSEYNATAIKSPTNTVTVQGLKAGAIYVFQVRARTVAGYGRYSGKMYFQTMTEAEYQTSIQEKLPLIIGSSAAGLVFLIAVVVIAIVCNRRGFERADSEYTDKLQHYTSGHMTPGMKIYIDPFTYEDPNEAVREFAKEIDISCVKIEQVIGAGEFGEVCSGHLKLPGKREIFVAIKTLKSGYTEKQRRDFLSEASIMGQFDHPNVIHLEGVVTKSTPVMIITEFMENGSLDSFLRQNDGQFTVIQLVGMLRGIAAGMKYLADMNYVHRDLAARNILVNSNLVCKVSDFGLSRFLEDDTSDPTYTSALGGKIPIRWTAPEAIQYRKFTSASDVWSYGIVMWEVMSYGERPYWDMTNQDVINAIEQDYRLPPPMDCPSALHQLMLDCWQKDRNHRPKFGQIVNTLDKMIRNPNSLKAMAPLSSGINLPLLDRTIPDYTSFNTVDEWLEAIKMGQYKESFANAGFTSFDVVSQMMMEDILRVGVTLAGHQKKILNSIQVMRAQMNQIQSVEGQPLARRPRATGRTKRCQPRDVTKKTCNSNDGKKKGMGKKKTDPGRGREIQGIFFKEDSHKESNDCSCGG
In short: as §1

[18] = target: T18, BRSK2 (Homo sapiens, UniProt Q8IWQ3)
T18 construct: either as full-length or enzymatically active fragments; purchased ProQinase GmbH (Reaction Biology)
In short: as §1

[19] = target: T19, EPHA4 (Homo sapiens, UniProt P54764)
T19 construct: either as full-length or enzymatically active fragments; purchased ProQinase GmbH (Reaction Biology)
In short: as §1

[20] = target: T20, FER (Homo sapiens, UniProt P16591)
T20 construct: either as full-length or enzymatically active fragments; purchased ProQinase GmbH (Reaction Biology); host or cells: Sf9 insect cells or E. coli
In short: as §1

[21] = target: T21, MET (Homo sapiens, UniProt P08581)
T21 construct: purchased ProQinase GmbH (Reaction Biology); host or cells: Sf9 insect cells or E. coli (not specified per kinase)
In short: as §1

[22] = target: T22, SRMS (Homo sapiens, UniProt Q9H3Y6)
T22 construct: purchased ProQinase GmbH (Reaction Biology)
In short: as §1

[23] = target: T23, PDK1 (Homo sapiens, UniProt O15530)
T23 construct: either as full-length or enzymatically active fragments; purchased ProQinase GmbH (Reaction Biology)
T23 sequence (O15530 whole entry, the tested form may be a part): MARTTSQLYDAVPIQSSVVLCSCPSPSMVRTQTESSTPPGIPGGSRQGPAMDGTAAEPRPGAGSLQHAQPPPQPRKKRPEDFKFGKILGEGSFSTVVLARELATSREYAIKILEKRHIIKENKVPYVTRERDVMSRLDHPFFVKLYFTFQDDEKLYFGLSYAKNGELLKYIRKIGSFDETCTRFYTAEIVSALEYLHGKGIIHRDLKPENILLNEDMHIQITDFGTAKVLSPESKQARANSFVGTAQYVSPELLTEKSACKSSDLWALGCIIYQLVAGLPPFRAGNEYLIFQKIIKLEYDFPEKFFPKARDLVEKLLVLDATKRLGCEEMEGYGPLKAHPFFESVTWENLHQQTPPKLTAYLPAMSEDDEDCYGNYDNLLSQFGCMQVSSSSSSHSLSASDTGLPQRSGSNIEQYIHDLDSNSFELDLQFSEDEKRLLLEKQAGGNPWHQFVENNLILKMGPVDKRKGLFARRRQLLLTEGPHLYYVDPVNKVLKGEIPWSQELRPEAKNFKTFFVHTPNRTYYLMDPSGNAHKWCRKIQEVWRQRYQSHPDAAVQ
In short: as §1

[24] = target: T24, NEK6 (Homo sapiens, UniProt Q9HC98)
T24 construct: either as full-length or enzymatically active fragments; purchased ProQinase GmbH (Reaction Biology)
In short: as §1

[25] = target: T25, TAOK2 (Homo sapiens, UniProt Q9UL54)
T25 construct: either as full-length or enzymatically active fragments; purchased ProQinase GmbH (Reaction Biology)
In short: as §1

[26] = target: T26, CDK7/CycH/MAT1 (Homo sapiens, UniProt P50613)
T26 construct: either as full-length or enzymatically active fragments; purchased ProQinase GmbH (Reaction Biology)
In short: as §1

[27] = target: T27, TXK (Homo sapiens, UniProt P42681)
T27 construct: either as full-length or enzymatically active fragments; purchased ProQinase GmbH (Reaction Biology)
In short: as §1

[28] = target: T28, BMPR1B (Homo sapiens, UniProt O00238)
T28 construct: either as full-length or enzymatically active fragments; purchased ProQinase GmbH (Reaction Biology)
T28 sequence (O00238 14-502): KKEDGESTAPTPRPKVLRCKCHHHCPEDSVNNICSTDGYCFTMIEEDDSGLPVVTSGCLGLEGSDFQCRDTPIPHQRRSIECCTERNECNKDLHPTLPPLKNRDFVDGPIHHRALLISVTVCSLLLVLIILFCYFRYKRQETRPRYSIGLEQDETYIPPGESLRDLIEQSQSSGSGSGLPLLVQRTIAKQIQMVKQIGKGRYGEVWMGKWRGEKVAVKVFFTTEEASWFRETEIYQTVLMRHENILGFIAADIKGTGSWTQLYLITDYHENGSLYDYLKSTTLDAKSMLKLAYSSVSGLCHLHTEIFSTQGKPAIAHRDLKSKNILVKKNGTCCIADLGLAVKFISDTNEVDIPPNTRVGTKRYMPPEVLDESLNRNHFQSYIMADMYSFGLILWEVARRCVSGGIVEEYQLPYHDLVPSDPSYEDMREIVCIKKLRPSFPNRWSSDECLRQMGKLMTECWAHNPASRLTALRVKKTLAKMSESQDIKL
In short: as §1

[29] = target: T29, FES (Homo sapiens, UniProt P07332)
T29 construct: purchased ProQinase GmbH (Reaction Biology)
In short: as §1

[30] = target: T30, DNAPK (Homo sapiens, UniProt P78527)
T30 construct: purchased ProQinase GmbH (Reaction Biology); host or cells: Sf9 insect cells or E. coli (not specified per kinase)
In short: as §1

T1 sequence (Q9UHD2 whole entry, the tested form may be a part): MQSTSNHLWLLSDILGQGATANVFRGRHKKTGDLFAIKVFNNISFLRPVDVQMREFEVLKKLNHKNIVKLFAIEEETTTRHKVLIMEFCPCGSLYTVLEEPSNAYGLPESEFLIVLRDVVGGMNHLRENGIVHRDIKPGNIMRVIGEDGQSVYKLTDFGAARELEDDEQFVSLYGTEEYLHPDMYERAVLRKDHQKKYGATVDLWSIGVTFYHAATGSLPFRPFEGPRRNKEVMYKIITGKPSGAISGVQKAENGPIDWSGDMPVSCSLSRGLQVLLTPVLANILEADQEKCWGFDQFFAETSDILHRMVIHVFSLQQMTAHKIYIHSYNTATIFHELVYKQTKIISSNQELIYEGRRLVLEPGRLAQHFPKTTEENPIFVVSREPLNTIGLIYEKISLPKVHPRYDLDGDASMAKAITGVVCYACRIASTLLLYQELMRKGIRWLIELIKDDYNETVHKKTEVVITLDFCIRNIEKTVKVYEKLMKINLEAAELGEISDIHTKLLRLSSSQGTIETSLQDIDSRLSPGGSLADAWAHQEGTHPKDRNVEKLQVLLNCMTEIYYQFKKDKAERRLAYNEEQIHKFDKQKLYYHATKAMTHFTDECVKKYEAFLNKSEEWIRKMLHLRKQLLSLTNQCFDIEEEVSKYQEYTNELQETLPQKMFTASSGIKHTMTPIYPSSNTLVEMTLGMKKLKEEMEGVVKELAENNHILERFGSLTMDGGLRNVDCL

C=CC(=O)Nc1ccc(C(=O)N2CC[C@@H](Nc3ncc(C#N)cn3)C2)cc1 [Compound 4, (R)-N-(4-(3-((5-cyanopyrimidin-2-yl)amino)pyrrolidine-1-carbonyl)phenyl)acrylamide]
inhibition at 1 µM [1]: -4% | inhibition at 1 µM [2]: -5% | inhibition at 1 µM [3]: 3% | inhibition at 1 µM [4]: -2% | inhibition at 1 µM [5]: 3% | inhibition at 1 µM [6]: -2% | inhibition at 1 µM [7]: 14% | inhibition at 1 µM [8]: 12% | inhibition at 1 µM [9]: 1% | inhibition at 1 µM [10]: 7% | inhibition at 1 µM [11]: 12% | inhibition at 1 µM [12]: 27% | inhibition at 1 µM [13]: 9% | inhibition at 1 µM [14]: 5% | inhibition at 1 µM [15]: -10% | inhibition at 1 µM [16]: 1% | inhibition at 1 µM [17]: 1% | inhibition at 1 µM [18]: -10% | inhibition at 1 µM [19]: 2% | inhibition at 1 µM [20]: 15% | inhibition at 1 µM [21]: 0% | inhibition at 1 µM [22]: -2% | inhibition at 1 µM [23]: -7% | inhibition at 1 µM [24]: 4% | inhibition at 1 µM [25]: 5% | inhibition at 1 µM [26]: 33% | inhibition at 1 µM [27]: 6% | inhibition at 1 µM [28]: 6% | inhibition at 1 µM [29]: -2% | inhibition at 1 µM [30]: 2%
